These are literature values, as cited in patent publication US20100210719A1, “O-DESMETHYLVENLAFAXINE” (DR. REDDY'S LABORATORIES LTD., priority 2007, published 2010).

For this data set the following is noted: inferred from the major DSC endotherm at about 120° C. and Tg onset at 18° C. reported in U.S. Pat. No. 6,673,838.

Consider `CN(C)CC(c1ccc(O)cc1)C1(O)CCCCC1` (stereo not shown) [desvenlafaxine succinate], for which the “stability of the amorphous form” value was “highly unstable”.
